Values after ≈ are worked out from the molar mass of the structure shown. Active and inactive are the calls of the source. The rule behind the calls is not given here.
Columns and labels:
[1] = molecular target: Cholinesterase (Equus caballus) (UniProt P81908); test: Inhibition of horse serum BChE at 10 uM by Ellman's spectrophotometric assay; assay type: cell-free
[2] = Chromatographic hydrophobicity index of the compound in ammonium acetate buffer at pH 7.4 by RP-HPLC analysis; assay type: physicochemical
[3] = 1-Octanol/PBS buffer distribution coefficient, log D of the compound at 1 uM measured after 24 hrs at pH 7.4 by shake flask based HPLC-ES-MS/MS analysis; assay type: physicochemical
[4] = Kinetic aqueous solubility of the compound in PBS incubated for 2 hrs under mild shaking at pH 7.4 by UV- vis spectrophotometric analysis; assay type: physicochemical; settings: read-out: Kinetic_solubility
[5] = molecular target: T1, Amine oxidase [flavin-containing] B (Homo sapiens, UniProt P27338); test: Inhibition of human recombinant MAO-B expressed in supersomes assessed as inhibition of 4-hydroxyquinoline formation using kynuramine as substrate by spectrophotometric method
T1 sequence (P27338 whole entry): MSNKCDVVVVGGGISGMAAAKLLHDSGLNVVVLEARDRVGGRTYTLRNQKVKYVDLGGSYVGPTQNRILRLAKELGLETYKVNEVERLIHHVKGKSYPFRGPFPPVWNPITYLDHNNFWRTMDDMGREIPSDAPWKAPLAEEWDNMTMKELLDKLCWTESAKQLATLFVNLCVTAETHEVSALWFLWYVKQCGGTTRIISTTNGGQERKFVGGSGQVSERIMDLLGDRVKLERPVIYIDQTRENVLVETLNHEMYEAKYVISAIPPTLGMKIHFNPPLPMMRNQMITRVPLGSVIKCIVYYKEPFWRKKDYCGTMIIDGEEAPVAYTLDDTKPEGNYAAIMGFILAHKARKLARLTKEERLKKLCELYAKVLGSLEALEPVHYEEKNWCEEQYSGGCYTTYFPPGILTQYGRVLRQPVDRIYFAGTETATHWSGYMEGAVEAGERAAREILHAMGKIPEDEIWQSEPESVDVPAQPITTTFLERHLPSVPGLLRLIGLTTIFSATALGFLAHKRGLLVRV

[6] = Microsomal stability in mouse liver microsomes assessed as half life at 0.5 uM incubated upto 30 mins in presence of NADPH by LC/MS/MS analysis; assay type: ADME, Microsome
Cytochrome P450 3A4 = Cytochrome P450 3A4 (Homo sapiens, UniProt P08684); test: Inhibition of human recombinant CYP3A4 expressed in baculosomes by fluorescent homogenous assay; assay type: ADME
Sequence of Cytochrome P450 3A4 (P08684 whole entry): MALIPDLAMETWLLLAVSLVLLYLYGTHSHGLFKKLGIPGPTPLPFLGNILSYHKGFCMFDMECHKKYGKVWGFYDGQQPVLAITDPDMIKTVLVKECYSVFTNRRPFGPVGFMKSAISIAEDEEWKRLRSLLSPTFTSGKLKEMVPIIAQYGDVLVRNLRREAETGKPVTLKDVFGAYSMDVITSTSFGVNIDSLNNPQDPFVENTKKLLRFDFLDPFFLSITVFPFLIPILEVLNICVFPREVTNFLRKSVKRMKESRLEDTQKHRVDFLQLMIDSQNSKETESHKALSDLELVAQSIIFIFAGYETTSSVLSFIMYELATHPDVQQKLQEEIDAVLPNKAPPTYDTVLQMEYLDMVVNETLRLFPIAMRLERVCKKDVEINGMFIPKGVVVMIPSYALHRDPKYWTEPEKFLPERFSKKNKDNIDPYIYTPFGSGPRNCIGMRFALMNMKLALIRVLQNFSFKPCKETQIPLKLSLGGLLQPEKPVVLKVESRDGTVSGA

[7] = Efflux ratio of apparent permeability across basolateral to apical side over apical to basolateral side in human Caco-2 cells; assay type: ADME, cell-based
SH-SY5Y [8] = test: Neuroprotection against Amyloid beta-induced cytotoxicity in human SH-SY5Y cells assessed as increase in cell viability at 0.1 to 1 uM co-incubated with Amyloid beta for 24 hrs by MTT assay; assay type: functional, cell-based; settings: dose 0.1-1 µM
MAO-A = molecular target: T2, MAO-A (Homo sapiens, UniProt P21397); test: in vitro; settings: recombinant MAO-A expressed in supersomes, probe kynuramine
T2 sequence (P21397 whole entry): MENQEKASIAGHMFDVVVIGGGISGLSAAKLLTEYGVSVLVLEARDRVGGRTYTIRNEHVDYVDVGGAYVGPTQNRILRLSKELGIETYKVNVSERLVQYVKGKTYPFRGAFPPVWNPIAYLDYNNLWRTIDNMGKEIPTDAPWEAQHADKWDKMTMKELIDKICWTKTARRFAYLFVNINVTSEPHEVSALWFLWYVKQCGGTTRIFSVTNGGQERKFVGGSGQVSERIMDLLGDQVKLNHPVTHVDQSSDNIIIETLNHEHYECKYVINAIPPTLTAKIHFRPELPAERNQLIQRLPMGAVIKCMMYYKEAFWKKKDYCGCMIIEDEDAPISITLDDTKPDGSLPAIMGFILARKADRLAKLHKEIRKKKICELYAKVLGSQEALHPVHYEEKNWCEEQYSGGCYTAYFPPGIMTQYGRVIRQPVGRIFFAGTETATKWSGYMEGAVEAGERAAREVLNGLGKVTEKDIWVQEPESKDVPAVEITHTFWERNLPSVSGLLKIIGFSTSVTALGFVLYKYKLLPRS

[9] = molecular target: T1, Amine oxidase [flavin-containing] B; test: Reversible inhibition of human recombinant MAO-B expressed in supersomes using kynuramine as substrate at 10 nM co-incubated with enzyme and measured over 6 hrs by spectrophotometric method; settings: 0.01 µM
SH-SY5Y [10] = test: Neuroprotective activity against NMDA -induced cytotoxicity in human SH-SY5Y cells assessed as increase in cell viability at 0.1 to 5 uM co-incubated with NMDA for 24 hrs by MTT assay; assay type: functional, cell-based; settings: dose 0.1-5 µM
Acetylcholinesterase [11] = molecular target: T3, Acetylcholinesterase (Homo sapiens, UniProt P22303); test: Mixed type inhibition of human AChE by Lineweaver-Burk plot analysis
T3 sequence (P22303 whole entry): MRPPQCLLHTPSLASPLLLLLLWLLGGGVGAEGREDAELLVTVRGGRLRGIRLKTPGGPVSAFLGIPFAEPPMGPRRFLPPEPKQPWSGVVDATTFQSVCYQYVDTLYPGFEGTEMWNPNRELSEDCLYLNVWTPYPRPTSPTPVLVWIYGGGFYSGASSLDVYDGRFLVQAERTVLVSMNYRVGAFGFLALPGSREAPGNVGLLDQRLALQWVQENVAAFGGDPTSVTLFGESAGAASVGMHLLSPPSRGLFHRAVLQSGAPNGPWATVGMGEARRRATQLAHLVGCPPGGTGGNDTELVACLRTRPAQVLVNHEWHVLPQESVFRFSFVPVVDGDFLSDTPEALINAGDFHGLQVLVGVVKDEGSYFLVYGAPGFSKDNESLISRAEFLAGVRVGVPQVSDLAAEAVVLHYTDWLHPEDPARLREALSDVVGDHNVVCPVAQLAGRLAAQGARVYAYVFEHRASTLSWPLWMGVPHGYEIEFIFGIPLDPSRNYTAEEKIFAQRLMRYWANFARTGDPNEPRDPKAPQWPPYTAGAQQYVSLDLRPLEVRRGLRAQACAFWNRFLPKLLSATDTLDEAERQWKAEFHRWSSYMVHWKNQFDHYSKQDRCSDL

[12] = Apparent permeability across basolateral to apical side in human Caco-2 cells at 10 uM incubated for 60 mins by HPLC-MS/MS method; assay type: ADME, cell-based
[13] = Apparent permeability across apical to basolateral side in human Caco-2 cells at 10 uM incubated for 60 mins by HPLC-MS/MS method; assay type: ADME, cell-based
Albumin = Albumin (Homo sapiens, UniProt P02768); test: Binding affinity to human serum albumin assessed as dissociation […] constant by surface plasmon resonance assay; assay type: ADME, cell-free
Sequence of Albumin (P02768 whole entry): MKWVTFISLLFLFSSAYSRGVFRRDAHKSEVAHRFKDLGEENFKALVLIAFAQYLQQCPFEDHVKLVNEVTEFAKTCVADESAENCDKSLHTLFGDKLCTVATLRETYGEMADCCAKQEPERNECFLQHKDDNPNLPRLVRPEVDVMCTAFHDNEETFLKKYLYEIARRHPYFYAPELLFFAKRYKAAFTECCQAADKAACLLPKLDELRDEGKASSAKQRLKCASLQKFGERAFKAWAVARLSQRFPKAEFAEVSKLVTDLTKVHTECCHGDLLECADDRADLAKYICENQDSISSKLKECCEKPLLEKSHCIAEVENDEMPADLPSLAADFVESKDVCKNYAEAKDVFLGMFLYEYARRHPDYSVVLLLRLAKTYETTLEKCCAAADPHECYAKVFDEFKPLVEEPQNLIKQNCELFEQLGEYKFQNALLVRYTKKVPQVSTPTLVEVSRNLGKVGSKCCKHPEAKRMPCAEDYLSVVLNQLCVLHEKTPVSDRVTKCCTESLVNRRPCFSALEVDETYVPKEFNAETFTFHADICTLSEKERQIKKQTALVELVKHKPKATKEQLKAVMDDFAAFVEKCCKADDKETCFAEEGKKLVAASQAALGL

Homo sapiens = organism: Homo sapiens; test: Selectivity for human recombinant MAO-B expressed in supersomes over human recombinant MAO-A expressed in supersomes
SH-SY5Y [14] = test: Neuroprotective activity against H2O2-induced neurotoxicity in human SH-SY5Y cells assessed as increase in cell viability at 1 to 5 uM co-incubated with H2O2 for 24 hrs by MTT assay; assay type: functional, cell-based; settings: dose 1-5 µM
[15] = Effective permeability of the compound in PBS buffer at pH 7.4 by PAMPA-BBB assay; assay type: ADME; settings: read-out: Peff
[16] = molecular target: T1, Amine oxidase [flavin-containing] B
Description: Inhibition of human recombinant MAO-B expressed in supersomes assessed as inhibition of 4-hydroxyquinoline formation using kynuramine as substrate by spectrofluorimetric analysis

HepG2 = test: Cytotoxicity against human HepG2 cells assessed as reduction in cell viability at 100 uM incubated for 4 hrs by CellTiter-Glo luminescence assay; assay type: toxicity, cell-based; settings: hepg2, 4 h
[17] = Intrinsic clearance in mouse liver microsomes at 0.5 uM incubated upto 30 mins in presence of NADPH measured per mg protein by LC/MS/MS analysis; assay type: ADME, Microsome; settings: read-out: CLH
[18] = Microsomal stability in human liver microsomes assessed as half life at 0.5 uM incubated upto 60 mins in presence of NADPH by LC/MS/MS analysis; assay type: ADME, Microsome
[19] = molecular target: T1, Amine oxidase [flavin-containing] B; test: Competitive inhibition of human recombinant MAO-B expressed in supersomes using kynuramine as substrate by Lineweaver-Burk plot analysis
SH-SY5Y [20] = test: Cytotoxicity against human SH-SY5Y cells assessed as reduction in cell viability at 100 uM incubated for 4 hrs by CellTiter-Glo luminescence assay; assay type: toxicity, cell-based
Acetylcholinesterase [21] = molecular target: T3, Acetylcholinesterase
Description: Inhibition of human recombinant AChE by Ellman's spectrophotometric assay

[22] = Intrinsic clearance in human liver microsomes at 0.5 uM incubated upto 60 mins in presence of NADPH measured per mg protein by LC/MS/MS analysis; assay type: ADME, Microsome; settings: read-out: CLH
[23] = Cytotoxicity against human HepG2 cells assessed as reduction in cell viability incubated for 4 hrs by CellTiter-Glo luminescence assay; assay type: toxicity, cell-based
[24] = Cytotoxicity against human SH-SY5Y cells assessed as reduction in cell viability incubated for 4 hrs by CellTiter-Glo luminescence assay; assay type: toxicity, cell-based
Cholinesterase = Cholinesterase (Equus caballus, UniProt P81908)
Sequence of Cholinesterase (P81908 whole entry): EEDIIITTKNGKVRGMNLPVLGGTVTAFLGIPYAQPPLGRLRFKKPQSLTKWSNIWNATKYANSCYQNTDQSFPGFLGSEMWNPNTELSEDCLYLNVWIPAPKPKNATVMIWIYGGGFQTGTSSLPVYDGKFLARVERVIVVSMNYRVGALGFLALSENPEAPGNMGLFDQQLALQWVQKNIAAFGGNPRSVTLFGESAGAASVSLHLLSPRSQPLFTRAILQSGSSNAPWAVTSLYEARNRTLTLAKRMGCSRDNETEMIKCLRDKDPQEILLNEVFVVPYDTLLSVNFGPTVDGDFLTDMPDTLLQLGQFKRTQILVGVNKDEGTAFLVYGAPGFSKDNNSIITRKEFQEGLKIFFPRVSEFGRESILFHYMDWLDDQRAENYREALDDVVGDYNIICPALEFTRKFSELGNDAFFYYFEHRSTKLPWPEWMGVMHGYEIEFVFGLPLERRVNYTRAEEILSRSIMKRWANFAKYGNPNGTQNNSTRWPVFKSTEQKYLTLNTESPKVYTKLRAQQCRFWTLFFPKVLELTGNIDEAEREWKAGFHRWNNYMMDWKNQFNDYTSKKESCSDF
Description: Inhibition of horse serum BChE by Ellman's spectrophotometric assay

Sequence of Cholinesterase (Equus caballus) (P81908 whole entry): as above

Row | SMILES | CHI [2] | logD at 24 h, 1 µM [3] | solubility kinetic at 2 h [4] | inhibition (INH) [5] | half-life at 0.5 µM [6] | IC50 (Cytochrome P450 3A4) | inhibition at 10 µM (MAO-A) | Selectivity Index (Homo sapiens) | IC50 [16] | microsomal CLint at 0.5 µM [17] | IC50 (Acetylcholinesterase [21]) | also measured
1 | CN(CCCC(F)F)Cc1ccc(COc2ccc3c(CO)cc(=O)oc3c2)cc1 | 76.4 | 2.48 | 201 µM (≈ 83.9 µg/mL) | Active | 25 min | 10000 nM | 34% | > 1250 | 8.2 nM | 55.6 µL/min/mg | 550 nM | inhibition [1]: 34%; efflux ratio [7]: 0.6; Activity (SH-SY5Y [8]): Active; inhibition (INH) [9]: Active; Activity (SH-SY5Y [10]): Active; Ki (Acetylcholinesterase [11]): 2000 nM; Papp B→A at 1 h, 10 µM [12]: 16 ×10⁻⁶ cm/s; Papp A→B at 1 h, 10 µM [13]: 25 ×10⁻⁶ cm/s; Kd (Albumin): 11300 nM; Activity (SH-SY5Y [14]): Active; Papp [15]: > 14 ×10⁻⁶ cm/s; Activity (HepG2): Non-Toxic; half-life at 0.5 µM [18]: 34.9 min; Ki [19]: 13 nM; Activity (SH-SY5Y [20]): Non-Toxic; microsomal CLint at 0.5 µM [22]: 39.8 µL/min/mg
2 | CN(Cc1ccc(COc2ccc3c(CO)cc(=O)oc3c2)cc1)Cc1cccc(F)c1 | > 100 | 4.29 | 2.4 µM (≈ 1.04 µg/mL) | Active | 36.9 min | 3500 nM | 47% | > 1000 | 10 nM | 37.7 µL/min/mg | 330 nM | IC50 at 4 h [23]: 40000 nM; IC50 at 4 h [24]: 40000 nM; IC50 (Cholinesterase): 1100 nM
